According to patent US11999727B2 (Tango Therapeutics, Inc., priority 2020, dated 2024):

Assays:
PRMT5 [1] = target: T1, PRMT5 (Homo sapiens, UniProt O14744); assay: PRMT5 biochemical IC50 assay with MTA as cofactor; conditions: PRMT5, MTA as cofactor; read-out: MTA IC50
T1 construct: purchased Viva (custom protein)

[2] = test system: HAP1 MTAP-deleted cell line; assay: SDMA in-cell western assay, HAP1 MTAP-deleted; assay type: cell-based; conditions: for IC50: Homo sapiens, HAP1, SDMA in-cell western, HAP1 MTAP-deleted; for MTAP intact/deleted ratio: IC50 ratio HAP1 MTAP-intact / HAP1 MTAP-deleted, SDMA in-cell western
Method in brief: (§1)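 Readout: in-cell western detection of SDMA. Cells: HAP1 expressing endogenous MTAP and an MTAP-null HAP1 counterpart. Output: IC50.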

[3] = test system: HAP1 MTAP-intact cell line; assay: SDMA in-cell western assay, HAP1 MTAP-intact; assay type: cell-based; conditions: Homo sapiens, HAP1, SDMA in-cell western, HAP1 MTAP-intact; read-out: MTAP HAP1 intact IC50
Method in brief: as §1

[4] = test system: HAP1 MTAP-deleted cell line; assay: Viability assay, MTAP-deleted cell line; assay type: cell-based; conditions: Homo sapiens, read-out: HAP1 MTAP deleted viability
Source text: Table 1 additionally indicates IC50 values in a viability assay for the MTAP-deleted cell line (column 10), indicating the effect of treatment with compound on cell survival.

PRMT5 [5] = target: T1, PRMT5; assay: PRMT5 biochemical IC50 assay with no cofactor; conditions: PRMT5, no cofactor
Source text: Table 1 indicates IC50 values (μM) against PRMT5 for exemplary compounds in the presence of SAM as cofactor, with no cofactor, and with MTA as cofactor, respectively (columns 4-6). […] Ki values can be calculated from the IC50 values as described in the Examples section. As detailed in the Examples section, for the assay performed in the presence of SAM, IC50=Ki×1.5 (Ki=IC50/1.5).

PRMT5 [6] = target: T1, PRMT5; assay: PRMT5 biochemical IC50 assay with SAM as cofactor; conditions: PRMT5, SAM as cofactor; read-out: SAM IC50
[7] = read-out: HAP1 MTAP deleted IC50
[8] = HAP1, viability assay, MTAP-deleted cell line
[9] = read-out: HAP 1 MTAP deleted IC50
[10] = read-out: No Cofactor/ rel IC50
[11] = HAP1, viability assay, HAP1 MTAP-deleted
[12] = HAP1, viability IC50, MTAP-deleted cell line
[13] = HAP1, viability, HAP1 MTAP-deleted cell line

T1 sequence (O14744 whole entry): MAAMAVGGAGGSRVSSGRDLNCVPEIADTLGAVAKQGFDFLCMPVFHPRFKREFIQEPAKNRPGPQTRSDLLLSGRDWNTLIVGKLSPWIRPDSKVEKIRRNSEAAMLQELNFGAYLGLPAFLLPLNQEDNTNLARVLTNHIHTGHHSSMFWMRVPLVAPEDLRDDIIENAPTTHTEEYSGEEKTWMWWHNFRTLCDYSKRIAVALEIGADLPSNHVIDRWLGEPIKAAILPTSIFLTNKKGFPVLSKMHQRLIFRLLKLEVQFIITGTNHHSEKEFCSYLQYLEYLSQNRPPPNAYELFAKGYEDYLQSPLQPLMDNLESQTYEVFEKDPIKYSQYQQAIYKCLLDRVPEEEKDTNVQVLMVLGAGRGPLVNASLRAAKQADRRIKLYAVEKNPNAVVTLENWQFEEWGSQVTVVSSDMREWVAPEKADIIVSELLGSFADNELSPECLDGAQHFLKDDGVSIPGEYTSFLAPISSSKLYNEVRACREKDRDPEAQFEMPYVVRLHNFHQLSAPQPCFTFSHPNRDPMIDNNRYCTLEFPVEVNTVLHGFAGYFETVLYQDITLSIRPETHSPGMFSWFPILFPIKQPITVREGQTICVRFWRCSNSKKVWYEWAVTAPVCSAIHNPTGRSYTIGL
T1 sequence (Q9BQA1 whole entry partner): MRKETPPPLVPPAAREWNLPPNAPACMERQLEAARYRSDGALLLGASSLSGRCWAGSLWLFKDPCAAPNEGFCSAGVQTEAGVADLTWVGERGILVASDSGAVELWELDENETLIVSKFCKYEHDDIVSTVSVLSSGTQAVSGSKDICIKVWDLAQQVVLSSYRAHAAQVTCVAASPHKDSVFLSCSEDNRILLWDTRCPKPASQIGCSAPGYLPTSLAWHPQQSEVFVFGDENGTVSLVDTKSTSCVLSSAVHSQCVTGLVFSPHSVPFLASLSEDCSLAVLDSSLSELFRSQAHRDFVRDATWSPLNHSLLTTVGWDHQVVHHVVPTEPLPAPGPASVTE

Row | Compound | IC50 (PRMT5 [1]) [µM] | IC50 [2, 7] [µM] | IC50 [3] [µM] | IC50 (PRMT5 [5]; read-out: No Cofactor/rel IC50) [µM] | IC50 (PRMT5 [6]) [µM] | IC50 [2, 9] [µM] | IC50 (PRMT5 [5]; [10]) [µM] | MTAP intact/deleted ratio [2] | IC50 [4, 8] [µM] | IC50 [4, 11] [µM] | IC50 [4, 12] [µM] | IC50 [4, 13] [µM]
1 | Cc1cncc(NC(=O)C(=O)N2C[C@@H](C)CC[C@@H]2c2cccs2)c1 (racemic) [Compound 60, rac-2-((2R,5S)-5-methyl-2-(thiophen-2-yl)piperidin-1-yl)-N-(5-methylpyridin-3-yl)-2-oxoacetamide] | 0.05 to 0.5 | – | > 1 | – | > 0.5 | > 1 | > 0.5 | C (an IC50 ratio of less than 3 fold) | > 10 | – | – | –
2 | C[C@H]1CC[C@H](c2ccc(-c3nccs3)cc2)N(C(=O)C(=O)Nc2cncc(C(N)=O)c2)C1 (single isomer, unassigned) [Compound 772] | > 0.5 | > 1 | > 1 | > 0.5 | > 0.5 | – | – | B (an IC50 ratio greater than or equal to 3 fold but lower than 10 fold) | – | > 10 | – | –
3 | COc1ccc([C@@H]2CC[C@@H](C)CN2C(=O)C(=O)Nc2cncc(C(N)=O)c2)cn1 (racemic) [Compound 128, rac-5-{2-[(2R,5S)-2-(6-Methoxypyridin-3-yl)-5-methylpiperidin-1-yl]-2-oxoacetamido}pyridine-3-carboxamide] | < 0.05 | – | > 1 | – | 0.05 to 0.5 | 0.1 to 1 | 0.05 to 0.5 | A (an IC50 ratio greater than or equal to 10 fold) | > 10 | – | – | –
4 | C[C@@H]1CC[C@H](c2ccccn2)N(C(=O)C(=O)Nc2cncc(C(N)=O)c2)C1 (racemic) [Compound 584, 5-[[2-[(2R,5R)-5-methyl-2-(2-pyridyl)-1-piperidyl]-2-oxo-acetyl]amino]pyridine-3-carboxamide] | 0.05 to 0.5 | – | > 1 | > 0.5 | > 0.5 | 0.1 to 1 | – | A (an IC50 ratio greater than or equal to 10 fold) | – | – | > 10 | –
5 | CCc1cc(NC(=O)C(=O)N2C[C@@H](C)CC[C@@H]2c2ccc3sc([C@H]4C[C@@H](C)N(C)[C@@H](C)C4)nc3c2)cnc1N [Compound 1261, N-(6-amino-5-ethylpyridin-3-yl)-2-((2R,5S)-5-methyl-2-(2-((2R,4r,6S)-1,2,6-trimethylpiperidin-4-yl)benzo[d]thiazol-5-yl)piperidin-1-yl)-2-oxoacetamide] | < 0.05 | – | < 0.1 | – | < 0.05 | < 0.1 | < 0.05 | A (an IC50 ratio greater than or equal to 10 fold) | – | – | – | < 1
6 | CCc1cc(NC(=O)C(=O)N2C[C@@H](C)CC[C@@H]2c2ccc3sc(CN(CC)C(C)C)nc3c2)cnc1N [Compound 1380, N-(6-amino-5-ethylpyridin-3-yl)-2-((2R,5S)-2-(2-((ethyl(isopropyl)amino)methyl)benzo[d]thiazol-5-yl)-5-methylpiperidin-1-yl)-2-oxoacetamide] | < 0.05 | – | 0.1 to 1 | – | 0.05 to 0.5 | < 0.1 | < 0.05 | A (an IC50 ratio greater than or equal to 10 fold) | – | – | – | < 1
7 | COc1ncc(NC(=O)C(=O)N2C[C@@H](C)CC[C@@H]2c2ccc3cn(C4CCN(C)CC4)nc3c2)cc1C(N)=O (racemic) [Compound 1299, 2-Methoxy-5-[[2-oxo-2-[rac-(2R,5S)-5-methyl-2-[2-(1-methyl-4-piperidyl)indazol-6-yl]-1-piperidyl]acetyl]amino]pyridine-3-carboxamide] | < 0.05 | – | < 0.1 | – | < 0.05 | < 0.1 | < 0.05 | B (an IC50 ratio greater than or equal to 3 fold but lower than 10 fold) | – | – | – | < 1
8 | C[C@@H]1CC[C@@H](c2cccc(C(N)=O)c2)N(C(=O)C(=O)Nc2cncc(C(N)=O)c2)C1 (racemic) [Compound 125, rac-5-{2-[(2R,5S)-2-(3-Carbamoylphenyl)-5-methylpiperidin-1-yl]-2-oxoacetamido}pyridine-3-carboxamide] | 0.05 to 0.5 | – | > 1 | – | 0.05 to 0.5 | > 1 | 0.05 to 0.5 | B (an IC50 ratio greater than or equal to 3 fold but lower than 10 fold) | > 10 | – | – | –

More lines, main results first:

Row | IC50 (PRMT5 [1]) [µM] | IC50 [2, 7] [µM] | IC50 [3] [µM] | IC50 (PRMT5 [5]; read-out: No Cofactor/rel IC50) [µM] | IC50 (PRMT5 [6]) [µM] | IC50 [2, 9] [µM] | IC50 (PRMT5 [5]; [10]) [µM] | Compound | MTAP intact/deleted ratio [2] | IC50 [4, 8] [µM] | IC50 [4, 11] [µM] | IC50 [4, 12] [µM] | IC50 [4, 13] [µM]
9 | < 0.05 | 0.1 to 1 | > 1 | 0.05 to 0.5 | 0.05 to 0.5 | – | – | Cc1cc(NC(=O)C(=O)N2C[C@H](C)CC[C@H]2c2ccc(NCC(F)(F)F)cc2)cnc1N (single isomer, unassigned) [Compound 522] | A (an IC50 ratio greater than or equal to 10 fold) | 1 to 10 | – | – | –
10 | < 0.05 | – | > 1 | – | 0.05 to 0.5 | 0.1 to 1 | 0.05 to 0.5 | Cc1cc(NC(=O)C(=O)N2CCCCC2c2cccs2)cnc1N (stereo not shown) [Compound 9, N-(6-Amino-5-methylpyridin-3-yl)-2-oxo-2-(2-(thiophen-2-yl)piperidin-1-yl)acetamide] | A (an IC50 ratio greater than or equal to 10 fold) | > 10 | – | – | –
11 | < 0.05 | – | 0.1 to 1 | < 0.05 | 0.05 to 0.5 | < 0.1 | – | C[C@@H]1CC[C@@H](c2cc3cn[nH]c3s2)N(C(=O)C(=O)Nc2cncc(C(N)=O)c2)C1 (single isomer, unassigned) [Compound 943, 5-(2-(5-methyl-2-(1H-thieno[2,3-c]pyrazol-5-yl)piperidin-1-yl)-2-oxoacetamido)nicotinamide] | A (an IC50 ratio greater than or equal to 10 fold) | < 1 | – | – | –
12 | < 0.05 | < 0.1 | > 1 | 0.05 to 0.5 | 0.05 to 0.5 | – | – | CNc1nc2cc([C@@H]3CC[C@@H](C)CN3C(=O)C(=O)Nc3cncc(C(N)=O)c3)ccc2s1 (single isomer, unassigned) [Compound 877] | A (an IC50 ratio greater than or equal to 10 fold) | – | < 1 | – | –
13 | < 0.05 | 0.1 to 1 | > 1 | 0.05 to 0.5 | 0.05 to 0.5 | – | – | Cc1c(NC(=O)C(=O)N2[C@@H](C)CCC[C@H]2c2ccccc2)cnc(N)c1C (single isomer, unassigned) [Compound 425] | A (an IC50 ratio greater than or equal to 10 fold) | 1 to 10 | – | – | –
14 | < 0.05 | – | 0.1 to 1 | < 0.05 | 0.05 to 0.5 | < 0.1 | – | COc1ncc(NC(=O)C(=O)N2C[C@H](C)CC[C@H]2c2ccc3c(c2)CCC(=O)N3)cc1C(N)=O (single isomer, unassigned) [Compound 674] | A (an IC50 ratio greater than or equal to 10 fold) | – | – | < 1 | –
15 | < 0.05 | – | > 1 | 0.05 to 0.5 | 0.05 to 0.5 | < 0.1 | – | COc1ncc(NC(=O)C(=O)N2C[C@@H](C)CC[C@@H]2c2cccc3[nH]ncc23)cc1C(N)=O (single isomer, unassigned) [Compound 918] | A (an IC50 ratio greater than or equal to 10 fold) | < 1 | – | – | –
16 | < 0.05 | < 0.1 | > 1 | 0.05 to 0.5 | 0.05 to 0.5 | – | – | CN(C)c1cccc([C@@H]2CCCCN2C(=O)C(=O)Nc2cncc(C(N)=O)c2)c1 (single isomer, unassigned) [Compound 365] | A (an IC50 ratio greater than or equal to 10 fold) | 1 to 10 | – | – | –
